Data taken from ChEMBL document CHEMBL1909046, “DrugMatrix in vitro pharmacology data”.

Key:
[1] = biological target: T1, Alpha-1A adrenergic receptor (Rattus norvegicus, UniProt P43140); test: DRUGMATRIX: Alpha-1A adrenergic receptor radioligand binding (ligand: prazosin); format: cell membranes, Wistar, Submaxillary gland, Membrane; conditions: Not Active = under 50% inhibition at 10 µM
T1 sequence (P43140 whole entry): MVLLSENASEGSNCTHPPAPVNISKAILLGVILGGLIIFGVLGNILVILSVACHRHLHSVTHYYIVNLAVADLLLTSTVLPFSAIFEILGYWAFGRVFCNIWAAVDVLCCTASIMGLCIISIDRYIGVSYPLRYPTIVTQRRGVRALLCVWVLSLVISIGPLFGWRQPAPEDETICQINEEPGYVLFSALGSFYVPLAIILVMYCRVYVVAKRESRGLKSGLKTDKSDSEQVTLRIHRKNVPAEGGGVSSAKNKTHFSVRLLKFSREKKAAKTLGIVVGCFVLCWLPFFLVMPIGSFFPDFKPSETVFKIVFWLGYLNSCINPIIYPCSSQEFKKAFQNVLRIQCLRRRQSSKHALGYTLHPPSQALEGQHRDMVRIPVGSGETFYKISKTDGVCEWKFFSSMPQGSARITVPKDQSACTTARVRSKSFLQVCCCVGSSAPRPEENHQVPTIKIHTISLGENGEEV

[2] = DRUGMATRIX: ATPase, Na+/K+ enzyme inhibition (substrate: ATP); format: tissue-based, Sus scrofa, Heart; conditions: Not Active = under 50% inhibition at 10 µM
[3] = DRUGMATRIX: beta-Lactamase enzyme inhibition (substrate: Nitrocefin); design: species or system Bacillus cereus; conditions: Not Active = under 50% inhibition at 10 µM
[4] = biological target: T2, Cholecystokinin receptor type A (Homo sapiens, UniProt P32238); format: cell membranes, Membrane; conditions: 1321-n1; also: in other assays of this panel Not Active means under 50% inhibition at 10 µM
T2 sequence (P32238 whole entry): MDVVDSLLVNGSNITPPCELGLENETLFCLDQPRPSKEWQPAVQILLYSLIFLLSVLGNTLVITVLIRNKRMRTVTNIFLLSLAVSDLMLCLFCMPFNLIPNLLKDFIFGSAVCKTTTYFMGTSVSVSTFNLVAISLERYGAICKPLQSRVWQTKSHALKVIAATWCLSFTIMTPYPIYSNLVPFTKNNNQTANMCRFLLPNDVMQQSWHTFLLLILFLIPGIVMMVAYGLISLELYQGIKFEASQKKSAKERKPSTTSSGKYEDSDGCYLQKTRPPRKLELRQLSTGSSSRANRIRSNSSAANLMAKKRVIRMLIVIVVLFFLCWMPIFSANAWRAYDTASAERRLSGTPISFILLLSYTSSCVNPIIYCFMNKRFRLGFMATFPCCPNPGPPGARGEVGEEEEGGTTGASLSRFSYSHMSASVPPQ

D(1A) dopamine receptor = D(1A) dopamine receptor (Homo sapiens, UniProt P21728); test: DRUGMATRIX: Dopamine D1 radioligand binding (ligand: [3H] SCH-23390); format: cell membranes, CHO, Membrane; conditions: cho; Not Active = under 50% inhibition at 10 µM
Sequence of D(1A) dopamine receptor (P21728 whole entry): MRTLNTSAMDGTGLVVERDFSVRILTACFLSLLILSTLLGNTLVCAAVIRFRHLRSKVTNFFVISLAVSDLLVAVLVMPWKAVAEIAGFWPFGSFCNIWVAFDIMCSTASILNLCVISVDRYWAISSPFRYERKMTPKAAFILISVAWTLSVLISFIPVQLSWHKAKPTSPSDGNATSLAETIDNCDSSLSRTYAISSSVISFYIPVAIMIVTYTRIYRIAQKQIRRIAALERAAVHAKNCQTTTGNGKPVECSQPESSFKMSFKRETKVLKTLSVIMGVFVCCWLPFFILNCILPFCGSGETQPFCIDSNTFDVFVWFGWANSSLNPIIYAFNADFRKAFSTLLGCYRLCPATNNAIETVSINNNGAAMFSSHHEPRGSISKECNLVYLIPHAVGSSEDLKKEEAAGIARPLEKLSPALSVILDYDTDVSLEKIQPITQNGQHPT

[5] = biological target: Sodium-dependent dopamine transporter (Homo sapiens, UniProt Q01959); test: DRUGMATRIX: Dopamine Transporter radioligand binding (ligand: [125I] RTI-55); format: cell membranes, CHO-K1, Membrane; conditions: cho-k1; Not Active = under 50% inhibition at 10 µM
Sequence of Sodium-dependent dopamine transporter (Q01959 whole entry): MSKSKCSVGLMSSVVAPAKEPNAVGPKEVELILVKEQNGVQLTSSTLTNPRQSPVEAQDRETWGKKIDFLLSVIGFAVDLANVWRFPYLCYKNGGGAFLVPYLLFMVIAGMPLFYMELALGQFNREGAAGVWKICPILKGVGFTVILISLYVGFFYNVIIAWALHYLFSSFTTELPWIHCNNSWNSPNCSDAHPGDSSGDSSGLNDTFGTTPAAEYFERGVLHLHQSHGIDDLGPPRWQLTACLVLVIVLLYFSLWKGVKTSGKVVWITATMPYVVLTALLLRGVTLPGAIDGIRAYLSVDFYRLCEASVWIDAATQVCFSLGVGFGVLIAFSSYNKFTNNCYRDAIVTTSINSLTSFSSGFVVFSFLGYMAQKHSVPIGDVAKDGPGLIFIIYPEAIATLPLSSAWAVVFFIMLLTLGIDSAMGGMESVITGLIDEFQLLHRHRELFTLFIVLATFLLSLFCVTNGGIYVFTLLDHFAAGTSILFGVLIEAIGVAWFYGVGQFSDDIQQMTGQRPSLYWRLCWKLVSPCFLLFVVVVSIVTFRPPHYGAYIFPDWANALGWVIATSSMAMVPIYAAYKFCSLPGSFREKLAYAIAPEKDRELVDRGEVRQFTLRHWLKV

[6] = DRUGMATRIX: Phosphodiesterase PDE3 enzyme inhibition (substrate: [3H]cAMP + cAMP); format: tissue-based, Homo sapiens; conditions: platelet; Not Active = under 50% inhibition at 10 µM
Cytochrome P450 2E1 = Cytochrome P450 2E1 (Homo sapiens, UniProt P05181); conditions: bti-tn-5b1-4; also: in other assays of this panel Not Active means under 50% inhibition at 10 µM
Sequence of Cytochrome P450 2E1 (P05181 whole entry): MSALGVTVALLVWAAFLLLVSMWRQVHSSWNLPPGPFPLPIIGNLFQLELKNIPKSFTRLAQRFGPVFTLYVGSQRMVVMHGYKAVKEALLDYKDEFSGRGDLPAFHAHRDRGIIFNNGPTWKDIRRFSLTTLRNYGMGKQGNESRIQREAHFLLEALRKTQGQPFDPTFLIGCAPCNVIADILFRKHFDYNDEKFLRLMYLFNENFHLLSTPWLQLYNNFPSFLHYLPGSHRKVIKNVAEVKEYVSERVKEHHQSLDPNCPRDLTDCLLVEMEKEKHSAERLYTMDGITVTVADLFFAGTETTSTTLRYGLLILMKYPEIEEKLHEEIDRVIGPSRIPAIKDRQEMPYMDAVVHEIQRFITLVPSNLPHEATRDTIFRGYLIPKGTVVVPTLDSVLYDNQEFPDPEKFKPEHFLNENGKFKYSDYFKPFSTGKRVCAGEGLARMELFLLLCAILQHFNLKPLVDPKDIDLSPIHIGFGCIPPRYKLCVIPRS

CCN(CC)CC(=O)Nc1c(C)cccc1C [LIDOCAINE]
Not Active: IC50 [1] | IC50 [2] | Ki [2] | IC50 [3] | Ki [3] | IC50 [4] | IC50 (D(1A) dopamine receptor) | IC50 [5] | IC50 [6] | Ki [6] | IC50 (Cytochrome P450 2E1) | Ki (Cytochrome P450 2E1)

O=C1Nc2ccc(Cl)cc2C(c2ccccc2Cl)=NC1O (stereo not drawn) [LORAZEPAM]
Not Active: IC50 [1] | IC50 [2] | Ki [2] | IC50 [3] | Ki [3] | IC50 [4] | IC50 (D(1A) dopamine receptor) | IC50 [5] | IC50 [6] | Ki [6] | IC50 (Cytochrome P450 2E1) | Ki (Cytochrome P450 2E1)

COc1c2occc2cc2ccc(=O)oc12 [METHOXSALEN]
Not Active: IC50 [1] | IC50 [2] | Ki [2] | IC50 [3] | Ki [3] | IC50 [4] | IC50 (D(1A) dopamine receptor) | IC50 [5] | IC50 [6] | Ki [6] | IC50 (Cytochrome P450 2E1) | Ki (Cytochrome P450 2E1)

C[C@H]1C[C@@H]2[C@H]([C@@H](O)C[C@@]3(C)[C@H]2CC[C@]3(O)C(=O)CO)[C@@]2(C)C=CC(=O)C=C12 [METHYLPREDNISOLONE]
Not Active: IC50 [1] | IC50 [2] | Ki [2] | IC50 [3] | Ki [3] | IC50 [4] | IC50 (D(1A) dopamine receptor) | IC50 [5] | IC50 [6] | Ki [6] | IC50 (Cytochrome P450 2E1) | Ki (Cytochrome P450 2E1)

Cc1cccc(C)c1OCC(C)N (stereo not drawn) [MEXILETINE]
Not Active: IC50 [1] | IC50 [2] | Ki [2] | IC50 [3] | Ki [3] | IC50 [4] | IC50 (D(1A) dopamine receptor) | IC50 [5] | IC50 [6] | Ki [6] | IC50 (Cytochrome P450 2E1) | Ki (Cytochrome P450 2E1)

Nc1cc(N2CCCCC2)nc(N)[n+]1[O-] [MINOXIDIL]
Not Active: IC50 [1] | IC50 [2] | Ki [2] | IC50 [3] | Ki [3] | IC50 [4] | IC50 (D(1A) dopamine receptor) | IC50 [5] | IC50 [6] | Ki [6] | IC50 (Cytochrome P450 2E1) | Ki (Cytochrome P450 2E1)

CO[C@H]1/C=C/O[C@@]2(C)Oc3c(C)c(O)c4c(O)c(c(/C=N/N5CCN(C6CCCC6)CC5)c(O)c4c3C2=O)NC(=O)/C(C)=C\C=C\[C@H](C)[C@H](O)[C@@H](C)[C@@H](O)[C@@H](C)[C@H](OC(C)=O)[C@@H]1C [RIFAPENTINE]
Not Active: IC50 [1] | IC50 [2] | Ki [2] | IC50 [3] | Ki [3] | IC50 [4] | IC50 (D(1A) dopamine receptor) | IC50 [5] | IC50 [6] | Ki [6] | IC50 (Cytochrome P450 2E1) | Ki (Cytochrome P450 2E1)

CCCCOc1cc(CC2CNC(=O)N2)ccc1OC (stereo not drawn) [RO-201724]
Not Active: IC50 [1] | IC50 [2] | Ki [2] | IC50 [3] | Ki [3] | IC50 [4] | IC50 (D(1A) dopamine receptor) | IC50 [5] | IC50 [6] | Ki [6] | IC50 (Cytochrome P450 2E1) | Ki (Cytochrome P450 2E1)

CC[C@@H](C(=O)[C@@H](C)[C@@H](O)[C@H](C)[C@@H]1O[C@@H]([C@@H](CC)C(=O)O)CC[C@@H]1C)[C@H]1O[C@]2(C=C[C@@H](O)[C@]3(CC[C@@](C)([C@H]4CC[C@](O)(CC)[C@H](C)O4)O3)O2)[C@H](C)C[C@@H]1C [SALINOMYCIN]
Not Active: IC50 [1] | IC50 [2] | Ki [2] | IC50 [3] | Ki [3] | IC50 [4] | IC50 (D(1A) dopamine receptor) | IC50 [5] | IC50 [6] | Ki [6] | IC50 (Cytochrome P450 2E1) | Ki (Cytochrome P450 2E1)

O=C(Oc1ccccc1C(=O)O)c1ccccc1O [SALSALATE]
Not Active: IC50 [1] | IC50 [2] | Ki [2] | IC50 [3] | Ki [3] | IC50 [4] | IC50 (D(1A) dopamine receptor) | IC50 [5] | IC50 [6] | Ki [6] | IC50 (Cytochrome P450 2E1) | Ki (Cytochrome P450 2E1)

O=C(O)c1cn(-c2ccc(F)cc2)c2cc(N3CCNCC3)c(F)cc2c1=O [SARAFLOXACIN]
Not Active: IC50 [1] | IC50 [2] | Ki [2] | IC50 [3] | Ki [3] | IC50 [4] | IC50 (D(1A) dopamine receptor) | IC50 [5] | IC50 [6] | Ki [6] | IC50 (Cytochrome P450 2E1) | Ki (Cytochrome P450 2E1)

CC(C)NCC(O)c1ccc(NS(C)(=O)=O)cc1 (stereo not drawn) [SOTALOL]
Not Active: IC50 [1] | IC50 [2] | Ki [2] | IC50 [3] | Ki [3] | IC50 [4] | IC50 (D(1A) dopamine receptor) | IC50 [5] | IC50 [6] | Ki [6] | IC50 (Cytochrome P450 2E1) | Ki (Cytochrome P450 2E1)

O.O.O.O.O.O.[Cl-].[Cl-].[Sr+2] [STRONTIUM CHLORIDE HEXAHYDRATE]
Not Active: IC50 [1] | IC50 [2] | Ki [2] | IC50 [3] | Ki [3] | IC50 [4] | IC50 (D(1A) dopamine receptor) | IC50 [5] | IC50 [6] | Ki [6] | IC50 (Cytochrome P450 2E1) | Ki (Cytochrome P450 2E1)

O=C1C(CC[S+]([O-])c2ccccc2)C(=O)N(c2ccccc2)N1c1ccccc1 (stereo not drawn) [SULFINPYRAZONE]
Not Active: IC50 [1] | IC50 [2] | Ki [2] | IC50 [3] | Ki [3] | IC50 [4] | IC50 (D(1A) dopamine receptor) | IC50 [5] | IC50 [6] | Ki [6] | IC50 (Cytochrome P450 2E1) | Ki (Cytochrome P450 2E1)
